Assay results taken from US20150119363A1, “METHODS OF TREATING BACTERIAL INFECTIONS” (Rampex Pharmaceuticals, Inc., priority 2012, published 2015).
Counter-ions that a name gives are not always drawn.

Assays:
ECL1004 NMC-A = assay: Dose titration biapenem potentiation assay (MPC1); assay type: cell-based, Enterobacter cloacae; conditions: biapenem 1 μg/mL
Experimental: (§1) The potency and spectrum of β-lactamase inhibitors is also determined by assessing their biapenem potentiation activity in a dose titration potentiation assay using strains expressing serine carbapemenases (such as KPC). The potentiation effect is observed as the ability of BLI compounds to inhibit growth in the presence of sub-inhibitory concentration of biapenem. […] Biapenem is present in the test medium at 1 μg/mL. Compounds tested at the highest concentration of 40 μg/mL. […] Table 5 summarizes BLI potency of biapenem potentiation (MPC1). Biapenem MIC for each strain is also shown.

EC1007 KPC-3 = assay: Dose titration biapenem potentiation assay (MPC1); assay type: cell-based, Escherichia coli; conditions: biapenem 1 μg/mL
Experimental: as §1

KP1004 KPC-2 = assay: Dose titration biapenem potentiation assay (MPC1); assay type: cell-based, Klebsiella pneumoniae; conditions: biapenem 1 μg/mL
Experimental: as §1

KP1008 KPC-2 = assay: Dose titration biapenem potentiation assay (MPC1); assay type: cell-based, Klebsiella pneumoniae; conditions: biapenem 1 μg/mL
Experimental: as §1

[1] = system: K. pneumoniae KP1081 (NDM-1, CMY-6, SHV-11, CTX-M-15, TEM-1); assay: Aztreonam/Tigemonam MIC at various concentrations of BLI; assay type: cell-based; conditions: Klebsiella pneumoniae, read-out: Aztreonam MIC (μg/ml) in the presence of BLI
Experimental: MIC values for each bacterial strain were measured for each antimicrobial compound at various concentrations of each BLI.

[2] = system: E. coli EC1061 (NDM-1 CMY-6); assay: as above; assay type: cell-based; conditions: Escherichia coli, read-out: Aztreonam MIC (μg/ml) in the presence of BLI
Experimental: MIC values for each bacterial strain were measured for each antimicrobial compound at various concentrations of each BLI. […]

[3] = target: T1, SME-2 (Serratia marcescens SM1000 lysate) (Serratia marcescens, UniProt P52682); assay: Inhibition of biapenem hydrolysis by bacterial lysate; assay type: biochemical; conditions: read-out: IC50 (μg/mL) of inhibition of biapenem hydrolysis; SM1000 SME-2 lysate
T1 construct: Lysates were prepared from bacteria expressing various β-lactamases as a source of enzymes
Experimental: (§2) The activity of β-lactamase inhibitors to inhibit hydrolysis of biapenem was studied. Lysates were prepared from bacteria expressing various β-lactamases as a source of enzymes. Bacterial lysates were prepared as follows. A single colony from the fresh overnight plate was transferred to 5 mL of LB broth and grown to OD600=0.6-0.8. Next, this culture was transferred to 500 mL of LB and grown to OD600=0.7-0.9. Cells were pelleted by centrifugation at 5000 RPM (JA-14 rotor) for 15 minutes at room temperature. The pellet was resuspended in 10 mL of PBS. Five freeze-thaw cycles by putting cells at −20° C. and thawing them at the room temperature were next applied. After the last thaw step cells were spun down at 18K for 30 minutes and the supernatant was collected. This lysate was stored at −20° C.
(§3) Next, the activity of bacterial lysates was optimized for biapenem cleavage as follows. 50 μl of buffer A (50 mM Sodium Phosphate pH=7; 0.5% glucose, 1 mM MgCl2) was added to each well of 96-well UV-transparent plate. 50 μl of lysate was titrated vertically in 96-well plate column to generate 2-fold lysate dilutions. 100 μl of buffer A was added to each well, placed in plate reader at 37° C. and incubated for 15 minutes. 50 μl of 50 μg/mL solutions of biapenem in buffer A (pre-incubated at 37° C. for 15 minutes) were added to each well. Hydrolysis of biapenem was measured at 296 nm. This experiment was used to determine the optimal lysate dilution which produced a linear curve of relative UV signal that decreased to approximately OD=0.3-0.5 over 1 hour.
(§4) Finally, the potency of cyclic boronic acid derivative to inhibit the cleavage of biapenem cleavage by bacterial lysates was determined. 100 μl of buffer A (50 mM Sodium Phosphate pH=7; 0.5% glucose, 1 mM MgCl2) was added to each well of 96-well UV-transparent plate. 50 μl of 6× cyclic boronic acid derivative solution in buffer A was titrated vertically in 96-well plate column to generate 3-fold dilutions. 50 μl of diluted lysate in buffer A (optimal dilution is determined in experiment above) was added, and the plate was incubated in the plate reader at 37° C. for 15 minutes. 50 μl of 50 μg/mL solution of biapenem in buffer A (pre-incubated at 37° C. for 15 minutes) were next added to each well and hydrolysis of biapenem was recorded at 296 nm. EC50 of inhibition was determined by plotting the rate of biapenem cleavage vs. cyclic boronic acid derivative concentration.

[4] = target: T2, KPC-3 (Escherichia coli EC1007 lysate) (Klebsiella pneumoniae, UniProt Q9F663, H272Y); assay: as above; assay type: biochemical
T2 construct: Lysates were prepared from bacteria expressing various β-lactamases as a source of enzymes; endogenous in cells; host or cells: Escherichia coli strain EC1007 (freeze-thaw lysate supernatant)
Experimental: as §2, §3, §4

Row | MIC [1] | MIC [2] | Compound | BPM MPC1 ECL1004 NMC-A (ECL1004 NMC-A) | BPM MPC1 EC1007 KPC-3 (EC1007 KPC-3) | BPM MPC1 KP1004 KPC-2 (KP1004 KPC-2) | BPM MPC1 KP1008 KPC-2 (KP1008 KPC-2) | IC50 [3] | IC50 [4]
1 | – | – | O=C(O)C[C@@H]1CC[C@H](NC(=O)Cc2cccnc2)B(O)O1 [Compound 43, 2-((3R,6S)-2-hydroxy-3-(2-(pyridin-3-yl)acetamido)-1,2-oxaborinan-6-yl)acetic acid] | X (X = MPC1 of less than 1 μg/mL.) | X (X = MPC1 of less than 1 μg/mL.) | X (X = MPC1 of less than 1 μg/mL.) | X (X = MPC1 of less than 1 μg/mL.) | – | –
2 | – | – | CC(C)(O/N=C(\C(=O)N[C@H]1CC[C@@H](CC(=O)O)OB1O)c1csc(N)n1)C(=O)O [Compound 36, 2-((Z)-1-(2-aminothiazol-4-yl)-2-((3R,6S)-6-(carboxymethyl)-2-hydroxy-1,2-oxaborinan-3-ylamino)-2-oxoethylideneaminooxy)-2-methylpropanoic acid] | X (X = MPC1 of less than 1 μg/mL.) | Y (Y = MPC1 of 1 μg/mL to 5 μg/mL.) | Z (Z = MPC1 of greater than 5 μg/mL.) | X (X = MPC1 of less than 1 μg/mL.) | – | –
3 | – | – | CO/N=C(\C(=O)N[C@H]1CC[C@@H](CC(=O)O)OB1O)c1csc(N)n1 [Compound 40, 2-((3R,6S)-3-((Z)-2-(2-aminothiazol-4-yl)-2-(methoxyimino)acetamido)-2-hydroxy-1,2-oxaborinan-6-yl)acetic acid] | Y (Y = MPC1 of 1 μg/mL to 5 μg/mL.) | Y (Y = MPC1 of 1 μg/mL to 5 μg/mL.) | Y (Y = MPC1 of 1 μg/mL to 5 μg/mL.) | X (X = MPC1 of less than 1 μg/mL.) | – | –
4 | 256 µg/mL | 16 µg/mL | C[C@H]1[C@H](NC(=O)/C(=N\OC(C)(C)C(=O)O)c2csc(N)n2)C(=O)N1S(=O)(=O)O [Aztreonam, reference compound] | – | – | – | – | – | –
5 | – | – | O=C(O)C[C@@H]1CC[C@H](NC(=O)C[C@@H]2CCCCN2)B(O)O1 [Compound 53, 2-((3R,6S)-2-hydroxy-3-(2-((S)-piperidin-2-yl)acetamido)-1,2-oxaborinan-6-yl)acetic acid] | Y (Y = MPC1 of 1 μg/mL to 5 μg/mL.) | X (X = MPC1 of less than 1 μg/mL.) | X (X = MPC1 of less than 1 μg/mL.) | X (X = MPC1 of less than 1 μg/mL.) | – | –
6 | – | – | Nc1nc(/C(=N/OCc2cc(=O)c(O)cn2O)C(=O)N[C@H]2CC[C@@H](CC(=O)O)OB2O)cs1 [Compound 62, 2-((3R)-3-((Z)-2-(2-aminothiazol-4-yl)-2-((1,5-dihydroxy-4-oxo-1,4-dihydropyridin-2-yl)methoxyimino)acetamido)-2-hydroxy-1,2-oxaborinan-6-yl)acetic acid] | X (X = MPC1 of less than 1 μg/mL.) | X (X = MPC1 of less than 1 μg/mL.) | X (X = MPC1 of less than 1 μg/mL.) | X (X = MPC1 of less than 1 μg/mL.) | – | –
7 | – | – | CSCCC(N)C(=O)N[C@H]1CC[C@@H](CC(=O)O)OB1O (stereo partly drawn) [Compound 41, 2-((3R,6S)-3-(2-amino-4-(methylthio)butanamido)-2-hydroxy-1,2-oxaborinan-6-yl)acetic acid] | Y (Y = MPC1 of 1 μg/mL to 5 μg/mL.) | X (X = MPC1 of less than 1 μg/mL.) | X (X = MPC1 of less than 1 μg/mL.) | X (X = MPC1 of less than 1 μg/mL.) | – | –
8 | – | – | N[C@H]1CCC(CC(=O)O)OB1O (stereo partly drawn) [Compound 7, 2-((3R)-3-amino-2-hydroxy-1,2-oxaborinan-6-yl)acetic acid hydrochloride] | – | – | – | – | > 5.78 µM | > 5.78 µM
9 | – | – | N[C@H](CCCN/C(=N/C(=O)OCc1ccccc1)NC(=O)OCc1ccccc1)C(=O)N[C@H]1CC[C@@H](CC(=O)O)OB1O [Compound 44, 2-((3R,6S)-3-((R)-2-amino-5-((Z)-2,3-bis(benzyloxycarbonyl)guanidino)pentanamido)-2-hydroxy-1,2-oxaborinan-6-yl)acetic acid] | Y (Y = MPC1 of 1 μg/mL to 5 μg/mL.) | X (X = MPC1 of less than 1 μg/mL.) | X (X = MPC1 of less than 1 μg/mL.) | X (X = MPC1 of less than 1 μg/mL.) | – | –
10 | – | – | O=C(O)C[C@@H]1CC[C@H](NC(=O)[C@@H]2CCCCN2)B(O)O1 [Compound 45, 2-((3R,6S)-2-hydroxy-3-((S)-piperidine-2-carboxamido)-1,2-oxaborinan-6-yl)acetic acid] | Z (Z = MPC1 of greater than 5 μg/mL.) | X (X = MPC1 of less than 1 μg/mL.) | Y (Y = MPC1 of 1 μg/mL to 5 μg/mL.) | X (X = MPC1 of less than 1 μg/mL.) | – | –
11 | – | – | O=C(O)C[C@@H]1CC[C@H](NC(=O)CCc2ccccc2)B(O)O1 [Compound 38, 2-((3R,6S)-2-hydroxy-3-(3-phenylpropanamido)-1,2-oxaborinan-6-yl)acetic acid] | X (X = MPC1 of less than 1 μg/mL.) | X (X = MPC1 of less than 1 μg/mL.) | X (X = MPC1 of less than 1 μg/mL.) | X (X = MPC1 of less than 1 μg/mL.) | – | –
12 | – | – | O=C(O)C[C@@H]1CC[C@H](NC(=O)CCc2nnc(-c3ccccc3)o2)B(O)O1 [Compound 60, 2-((3R,6S)-2-hydroxy-3-(3-(5-phenyl-1,3,4-oxadiazol-2-yl)propanamido)-1,2-oxaborinan-6-yl)acetic acid] | X (X = MPC1 of less than 1 μg/mL.) | X (X = MPC1 of less than 1 μg/mL.) | X (X = MPC1 of less than 1 μg/mL.) | X (X = MPC1 of less than 1 μg/mL.) | – | –
13 | – | – | NCCSCC(=O)N[C@H]1CC[C@@H](CC(=O)O)OB1O [Compound 48, 2-((3R,6S)-3-(2-(2-aminoethylthio)acetamido)-2-hydroxy-1,2-oxaborinan-6-yl)acetic acid] | X (X = MPC1 of less than 1 μg/mL.) | X (X = MPC1 of less than 1 μg/mL.) | X (X = MPC1 of less than 1 μg/mL.) | X (X = MPC1 of less than 1 μg/mL.) | – | –
14 | – | – | N[C@@H](CCC(=O)N[C@H]1CC[C@@H](CC(=O)O)OB1O)C(=O)O [Compound 35, (S)-2-amino-5-((3R,6S)-6-(carboxymethyl)-2-hydroxy-1,2-oxaborinan-3-ylamino)-5-oxopentanoic acid] | Y (Y = MPC1 of 1 μg/mL to 5 μg/mL.) | X (X = MPC1 of less than 1 μg/mL.) | X (X = MPC1 of less than 1 μg/mL.) | X (X = MPC1 of less than 1 μg/mL.) | – | –
15 | – | – | NC(Cc1cccnc1)C(=O)N[C@H]1CC[C@@H](CC(=O)O)OB1O (stereo partly drawn) [Compound 42, 2-((3R,6S)-3-(2-amino-3-(pyridin-3-yl)propanamido)-2-hydroxy-1,2-oxaborinan-6-yl)acetic acid] | Y (Y = MPC1 of 1 μg/mL to 5 μg/mL.) | X (X = MPC1 of less than 1 μg/mL.) | X (X = MPC1 of less than 1 μg/mL.) | X (X = MPC1 of less than 1 μg/mL.) | – | –
